Earlier results as cited in paper PMC10593844, “Structure-function analyses reveal key molecular determinants of HIV-1 CRF01_AE resistance to the entry inhibitor temsavir” (Nature Communications, 2023).

Tests used:
[1] = tested on: laboratory-adapted NL4-3 HIV-1 strain; set-up: method as in PMID 30604750; details: cited from earlier work
CRF01_AE strains = tested on: CRF01_AE strains; set-up: method as in PMID 30604750; details: range over CRF01_AE strains; cited from earlier work

SMILES	fold greater inhibition than temsavir [1]	IC50 (CRF01_AE strains)
COc1cnc(-c2csc(CN(C)CCCN(C)C)n2)c2[nH]cc(C(=O)C(=O)N3CCC(=C(C#N)c4ccccc4)CC3)c12 [BMS-814508]	4 fold	–
COc1cnc(-c2csc(C(=O)NCCO)n2)c2[nH]cc(C(=O)C(=O)N3CCC(=C(C#N)c4ccccc4)CC3)c12 [BMS-818251]	~ 100 fold	32 to 733 nM
